Experimental data from PubChem BioAssay (NCI).
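A five-concentration, 48-hour dose response in 96-well plates underlies each endpoint, interpolated linearly between surrounding concentrations. TGI: total growth inhibition.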 Where a SMILES comes first, the peptide text is derived from it.

Assays:
Test in all cases: NCI tumour cell line growth inhibition, 48 h
[1] = system: TK-10 renal
[2] = system: EKVX NSCLC
[3] = system: MDA-MB-231 breast
[4] = system: SK-OV-3 ovarian
[5] = system: HT29 colon
[6] = system: SK-MEL-28 melanoma
[7] = system: SNB-75 CNS
[8] = system: IGROV1 ovarian
[9] = system: MOLT-4 leukemia
[10] = system: SN12C renal
[11] = system: 786-0 renal
[12] = system: MDA-MB-435
[13] = system: HCT-116 colon
[14] = system: NCI/ADR-RES ovarian
[15] = system: SK-MEL-2 melanoma
[16] = system: MCF7 breast
[17] = system: SR leukemia
[18] = system: OVCAR-4 ovarian
[19] = system: T-47D breast

SMILES: S=C(N/N=C(/c1ccccc1)c1ccccn1)Nc1ccc(Cl)cc1
- TGI [1]: 8.3 µM
- TGI [2]: 15.5 µM
- TGI [3]: 8.27 µM
- TGI [4]: 6.81 µM
- TGI [5]: > 44.3 µM
- TGI [6]: 11.8 µM
- TGI [7]: 8.84 µM
- TGI [8]: 12.9 µM
- TGI [9]: > 13.8 µM
- TGI [10]: 13.4 µM
- TGI [11]: 12.3 µM
- TGI [12]: 10.2 µM
- TGI [13]: 4.47 µM
- TGI [14]: 14.3 µM
- TGI [15]: 4.91 µM
- TGI [16]: 7.16 µM
- TGI [17]: 6.75 µM
- TGI [18]: 14.2 µM
- TGI [19]: 2.89 µM

SMILES: O=C(Nc1nnc(-c2c(Cl)c(Cl)c(Cl)c(Cl)c2-c2nc3cc(C(=O)c4ccccc4)ccc3[nH]2)o1)c1ccccc1
- TGI [1]: 50.7 µM
- TGI [2]: 38.7 µM
- TGI [3]: 33.7 µM
- TGI [4]: 52.2 µM
- TGI [5]: 63.6 µM
- TGI [6]: 45.4 µM
- TGI [7]: 41.4 µM
- TGI [8]: 42 µM
- TGI [9]: 72.5 µM
- TGI [10]: 31.3 µM
- TGI [11]: 30.5 µM
- TGI [12]: 30.8 µM
- TGI [13]: 87.3 µM
- TGI [14]: 33.3 µM
- TGI [15]: 51.4 µM
- TGI [16]: 36.5 µM
- TGI [17]: 20.9 µM
- TGI [18]: 95.1 µM
- TGI [19]: 54.7 µM

SMILES: CC(=O)NC(CS)C(=O)NC(CO)C(=O)NC(CO)C(=O)NC(Cc1c[nH]c2ccccc12)C(=O)N1CCCC1C(=O)NC(CO)C(=O)NC(Cc1c[nH]c2ccccc12)C(=O)NC(Cc1c[nH]cn1)C(=O)NC(CO)C(=O)NC(Cc1c[nH]c2ccccc12)C(=O)NCC(=O)NCC(=O)NC(CC(=O)O)C(=O)NC(CCC(N)=O)C(=O)NC(CCCCN)C(=O)NC(Cc1ccccc1)C(=O)NC(CCCNC(=N)N)C(=O)NC(CCCCN)C(N)=O (stereo not drawn) (Ac-CSSWPSWHSWGGDQKFRK-NH2; configuration not given here)
- TGI [1]: > 25 µM
- TGI [2]: > 25 µM
- TGI [3]: > 25 µM
- TGI [4]: > 25 µM
- TGI [5]: > 25 µM
- TGI [6]: > 25 µM
- TGI [7]: > 25 µM
- TGI [8]: > 25 µM
- TGI [9]: > 25 µM
- TGI [10]: > 25 µM
- TGI [11]: > 25 µM
- TGI [12]: > 25 µM
- TGI [13]: > 25 µM
- TGI [14]: > 25 µM
- TGI [15]: > 25 µM
- TGI [16]: > 25 µM
- TGI [17]: > 25 µM
- TGI [18]: > 25 µM
- TGI [19]: > 25 µM

SMILES: CO[C@@H]1C=C[C@@]23c4cc5c(cc4C(O)N(CC2O)C3C1)OCO5 (stereo partly drawn)
- TGI [1]: 23 µM
- TGI [2]: 33.3 µM
- TGI [3]: 21.8 µM
- TGI [4]: > 100 µM
- TGI [5]: 26.2 µM
- TGI [6]: > 100 µM
- TGI [7]: 6.92 µM
- TGI [8]: 68.9 µM
- TGI [9]: > 100 µM
- TGI [10]: > 100 µM
- TGI [11]: 22.6 µM
- TGI [12]: 18.2 µM
- TGI [13]: 21.3 µM
- TGI [14]: 75.1 µM
- TGI [15]: 9.09 µM
- TGI [16]: 8.64 µM
- TGI [17]: > 100 µM
- TGI [18]: 19.4 µM
- TGI [19]: 8.01 µM

SMILES: COc1ccc([C@H]2C=C(c3cc(F)c(Cl)cc3Cl)NC(=S)N2)cc1
- TGI [1]: > 100 µM
- TGI [2]: > 100 µM
- TGI [3]: > 100 µM
- TGI [4]: > 100 µM
- TGI [5]: 80.5 µM
- TGI [6]: > 100 µM
- TGI [7]: 66.5 µM
- TGI [8]: > 100 µM
- TGI [9]: > 100 µM
- TGI [10]: 57.1 µM
- TGI [11]: > 100 µM
- TGI [12]: 56.4 µM
- TGI [13]: 84.9 µM
- TGI [14]: > 100 µM
- TGI [15]: 58.4 µM
- TGI [16]: > 100 µM
- TGI [17]: > 100 µM
- TGI [18]: > 100 µM
- TGI [19]: > 100 µM

SMILES: O=C1Nc2cc([N+](=O)[O-])ccc2C(=O)N2CCC[C@@H]12
- TGI [1]: > 100 µM
- TGI [2]: > 100 µM
- TGI [3]: > 100 µM
- TGI [4]: > 100 µM
- TGI [5]: > 100 µM
- TGI [6]: > 100 µM
- TGI [7]: > 100 µM
- TGI [8]: > 100 µM
- TGI [9]: > 100 µM
- TGI [10]: > 100 µM
- TGI [11]: > 100 µM
- TGI [12]: > 100 µM
- TGI [13]: > 100 µM
- TGI [14]: > 100 µM
- TGI [15]: > 100 µM
- TGI [16]: > 100 µM
- TGI [17]: > 100 µM
- TGI [18]: > 100 µM
- TGI [19]: > 100 µM

SMILES: COc1cc2c(cc1OC)C1CCc3ccccc3CN1CC2 (stereo not drawn)
- TGI [1]: > 100 µM
- TGI [2]: > 100 µM
- TGI [3]: > 100 µM
- TGI [4]: > 100 µM
- TGI [5]: > 100 µM
- TGI [6]: > 100 µM
- TGI [7]: > 100 µM
- TGI [8]: > 100 µM
- TGI [9]: > 100 µM
- TGI [10]: > 100 µM
- TGI [11]: > 100 µM
- TGI [12]: > 100 µM
- TGI [13]: > 100 µM
- TGI [14]: > 100 µM
- TGI [15]: > 100 µM
- TGI [16]: > 100 µM
- TGI [17]: > 100 µM
- TGI [18]: > 100 µM
- TGI [19]: > 100 µM
